In the case of `COc1cc(Nc2c(C#N)cnc3cc(-c4ccc(N5CCN(C)CC5)nc4)ccc23)c(Cl)cc1Cl` [Example 198, 4-(2,4-Dichloro-5-methoxyanilino)-7-[6-(4-methyl-1-piperazinyl)-3-pyridinyl]-3-quinolinecarbonitrile], the melting point (commonly the temperature of the solid-liquid transition) lay within 240 to 242 °C.

On to `Cn1ccnc1Sc1ccc(Nc2c(C#N)cnc3cc(-c4cccc(CN5CCOCC5)n4)ccc23)cc1Cl` [Example 199, 4-{3-Chloro-4-[(1-methyl-1H-imidazol-2-yl)sulfanyl]anilino}-7-[6-(4-morpholinylmethyl)-2-pyridinyl]-3-quinolinecarbonitrile], for which the melting point lay in the range of 232 to 234 °C.

Consider `CCN1CCN(Cc2cccc(-c3ccc4c(Nc5ccc(Sc6nccn6C)c(Cl)c5)c(C#N)cnc4c3)n2)CC1` [Example 201, 4-{3-Chloro-4-[(1-methyl-1H-imidazol-2-yl)sulfanyl]anilino}-7-{6-[(4-ethyl-1-piperazinyl)methyl]-2-pyridinyl}-3-quinolinecarbonitrile], for which the melting point fell in the range of 214 to 216 °C.

Consider `CN1CCN(Cc2cccc(-c3ccc4c(Nc5ccc(Sc6nccn6C)c(Cl)c5)c(C#N)cnc4c3)n2)CC1` [Example 202, 4-{3-Chloro-4-[(1-methyl-1H-imidazol-2-yl)sulfanyl]anilino}-7-{6-[(4-methyl-1-piperazinyl)methyl]-2-pyridinyl}-3-quinolinecarbonitrile], for which the melting point lay within 157 to 159 °C.

Compound `Cn1ccnc1Sc1ccc(Nc2c(C#N)cnc3cc(-c4cc(CN5CCOCC5)ccn4)ccc23)cc1Cl` [Example 203, 4-({3-Chloro-4-[(1-methyl-1H-imidazol-2-yl)sulfanyl]phenyl}amino)-7-[4-(4-morpholinylmethyl)-2-pyridinyl]-3-quinolinecarbonitrile] displayed a melting point of 205 to 207 °C.

The compound `CCN1CCN(Cc2ccnc(-c3ccc4c(Nc5ccc(Sc6nccn6C)c(Cl)c5)c(C#N)cnc4c3)c2)CC1` [Example 205, 4-({3-Chloro-4-[(1-methyl-iH-imidazol-2-yl)sulfanyl]phenyl}amino)-7-{4-[(4-ethyl-1-piperazinyl)methyl]-2-pyridinyl}-3-quinolinecarbonitrile] registered a melting point of 150 to 153 °C.

On to `CN1CCN(Cc2ccnc(-c3ccc4c(Nc5ccc(Sc6nccn6C)c(Cl)c5)c(C#N)cnc4c3)c2)CC1` [Example 206, 4-({3-Chloro-4-[(1-methyl-1H-imidazol-2-yl)sulfanyl]phenyl}amino)-7-{4-[(4-methyl-I -piperazinyl)methyl]-2-pyridinyl}-3-quinolinecarbonitrile], for which the melting point fell in the range of 208 to 210 °C.

Consider `Cn1ccnc1Sc1ccc(Nc2c(C#N)cnc3cc(-c4ncccc4CN4CCOCC4)ccc23)cc1Cl` [Example 207, 4-({3-Chloro-4-[(1-methyl-1H-imidazol-2-yl)sulfanyl]phenyl}amino)-7-[3-(4-morpholinylmethyl)-2-pyridinyl]-3-quinolinecarbonitrile], for which the melting point is 195 °C (dec.).

Turning to `CCN1CCN(Cc2cccnc2-c2ccc3c(Nc4ccc(Sc5nccn5C)c(Cl)c4)c(C#N)cnc3c2)CC1` [Example 208, 4-({3-Chloro-4-[(1-methyl-1H-imldazol-2-yl)sulfanyl]phenyl}amino)-7-{3-[(4-ethyl-1-piperazinyl)methyl]-2-pyridinyl}-3-quinolinecarbonitrile], the melting point was in the range of 187 to 190 °C.

On to `CN1CCN(Cc2cccnc2-c2ccc3c(Nc4ccc(Sc5nccn5C)c(Cl)c4)c(C#N)cnc3c2)CC1` [Example 209, 4-({3-Chloro-4-[(I -methyl-1H-imidazol-2-yl)sulfanyl]phenyl}amino)-7-{3-[(4-methyl-1-piperazinyl)methyl]-2-pyridinyl}-3-quinolinecarbonitrile], for which the melting point lay in the range of 217 to 220 °C.

`Cn1ccnc1Sc1ccc(Nc2c(C#N)cnc3cc(-c4ccc(N5CCC(N6CCCC6)CC5)nc4)ccc23)cc1Cl` [Example 210, 4-({3-Chloro-4-[(1-methyl-H-imidazol-2-yl)sulfanyl]phenyl}amino)-7-{6-[4-(1-pyrrolidinyl)-1-piperidinyl]-3-pyridinyl}-3-quinolinecarbonitrile]: the melting point was 230 °C (dec.).

`COCCN(C)c1ccc(-c2ccc3c(Nc4ccc(Sc5nccn5C)c(Cl)c4)c(C#N)cnc3c2)cn1` [Example 212, 4-({3-Chloro-4-[(1-methyl-1H-imidazol-2-yl)sulfanyl]phenyl}amino)-7-{6-[(2-methoxyethyl) (methyl)amino]-3-pyridinyl}-3-quinolinecarbonitrile] returned a melting point of 224 to 226 °C.

Consider `CCOC(=O)C1CCN(c2ccc(-c3ccc4c(Nc5ccc(Sc6nccn6C)c(Cl)c5)c(C#N)cnc4c3)cn2)CC1` [Example 213, Ethyl 1-{5-[4-({3-chloro-4-[(1-methyl-iH-imidazol-2-yl)sulfanyl]phenyl}amino)-3-cyano-7-quinolinyl]-2-pyridinyl}-4-piperidinecarboxylate], for which the melting point was in the range of 253 to 255 °C.

As to `Cn1ccnc1Sc1ccc(Nc2c(C#N)cnc3cc(-c4ccc(N5CCC(O)CC5)nc4)ccc23)cc1Cl` [Example 214, 4-({3-Chloro-4-[(1-methyl-1H-imidazol-2-yl)sulfanyl]phenyl}amino)-7-[6-(4-hydroxy-1-piperidinyl)-3-pyridinyl]-3-quinolinecarbonitrile], the melting point was in the range of 178 to 180 °C.

The compound `Cn1ccnc1Sc1ccc(Nc2c(C#N)cnc3cc(-c4ccc(N5CCN(CCO)CC5)nc4)ccc23)cc1Cl` [Example 215, 4-({3-Chloro-4-[(1-methyl-1H-irnidazol-2-yl)sulfanyl]phenyl}amino)-7-{6-[4-(2-hydroxyethyl)-1-piperazinyl]-3-pyridinyl}-3-quinolinecarbonitrile] had a melting point of 239 to 241 °C.

`CN(CCO)c1ccc(-c2ccc3c(Nc4ccc(Sc5nccn5C)c(Cl)c4)c(C#N)cnc3c2)cn1` [Example 216, 4-({3-Chloro-4-[(1-methyl-1H-imidazol-2-yl)sulfanyl]phenyl}amino)-7-{6-[(2-hydroxyethyl) (methyl)amino]-3-pyridinyl}-3-quinolinecarbonitrile]: the melting point was 228 °C (dec.).

`Cn1ccnc1Sc1ccc(Nc2c(C#N)cnc3cc(-c4ccc(CN5CCN(CCO)CC5)cn4)ccc23)cc1Cl` [Example 217, 4-({3-chloro-4-[(1-methyl-1H-imidazol-2-yl)sulfanyl]phenyl}amino)-7-(5-{[4-(2-hydroxy-ethyl)-1-piperazinyl]-methyl}-2-pyridinyl)-3-quinolinecarbonitrile] registered a melting point of 160 to 163 °C.

In turn, `Cn1ccnc1Sc1ccc(Nc2c(C#N)cnc3cc(-c4ccc(CN5CCSCC5)cn4)ccc23)cc1Cl` [Example 219] came in with a melting point of 220 to 222 °C.

Consider `CCN1CCN(Cc2ccc(-c3ccc4c(Nc5ccc(Sc6nccn6C)c(Cl)c5)c(C#N)cnc4c3)cn2)CC1` [Example 220, 4-({3-Chloro-4-[(1-methyl-1H-imidazol-2-yl)sulfanyl]phenyl}amino)-7-1-{6-[(4-ethyl-1-piperazinyl)methyl]-3-pyridinyl}-3-quinolinecarbonitrile], for which the melting point was 192 to 195 °C.

Compound `CN1CCN(Cc2ccc(-c3ccc4c(Nc5ccc(Sc6nccn6C)c(Cl)c5)c(C#N)cnc4c3)cn2)CC1` [Example 221, 4-({3-Chloro-4-[(1-methyl-1H-imidazol-2-yl)sulfanyl]phenyl}amino)-7-1-{6-[(4-methyl-1-piperazinyl)methyl]-3-pyridinyl}-3-quinolinecarbonitrile] registered a melting point of 228 to 230 °C.

The values are drawn from patent publication US20020026052A1, “3-cyanoquinolines, 3-cyano-1,6-naphthyridines, and 3-cyano-1,7-naphthyridines as protein kinase inhibitors” (American Home Products Corporation, priority 2000, published 2002).
